Converted amounts (≈) assume the structure as drawn.
Columns and labels:
Assay type in all cases: cell-based, Staphylococcus aureus
[1] = system: MRSA (KCCM 40511); experiment: Minimum inhibitory concentration, two-fold serial dilution, MRSA KCCM 40511
Procedure: (§1) All the bacterial strains used for the Example were obtained from the Korean Collection of Type Cultures (KCTC; Daejeon, Korea) and the Korean Culture Center of Microorganisms (KCCM; Seoul, Korea). The bacterial strains used for the Example were methicillin-susceptible S. aureus (MSSA; KCTC 1927), two MRSA strains (KCCM 40510 and KCCM 40511). All strains were grown in Mueller-Hinton broth (MHB; Difco, Detroit, USA) or Tryptic soy broth (TSB; Difco) for minimum inhibitory concentration (MIC) assay and in Mueller-Hinton agar (MHA; Difco) for disc diffusion.
(§2) MIC means the lowest concentration of antimicrobials that will inhibit the visible growth of microorganisms after overnight incubation. MICS of the extracts and vancomycin were determined by the two-fold serial dilution method in MHB.

[2] = system: MRSA (KCCM 40510); experiment: Minimum inhibitory concentration, two-fold serial dilution, MRSA KCCM 40510
Procedure: as §1, §2

[3] = system: MSSA (KCTC 1927); experiment: Minimum inhibitory concentration, two-fold serial dilution, MSSA KCTC 1927
Procedure: as §1, §2

[4] = system: MSSA (KCCTC 1927); experiment: Checkerboard synergy of phlorofucofuroeckol-A and β-lactams, MSSA KCTC 1927
[5] = system: MRSA (KCCM 40511); experiment: Checkerboard synergy of phlorofucofuroeckol-A and β-lactams, MRSA KCCM 40511
Procedure: (§3) The interaction between phlorofucofuroeckol-A (PFF) and β-lactams including ampicillin, penicillin and oxacillin against MRSA was tested by the checkerboard method. The synergistic effect was evaluated as a fractional inhibitory concentration (FIC) index. The FIC was calculated as the MICS of an antibiotic or phlorofucofuroeckol-A (PFF) in combination divided by the MIC of the antibiotic or PFF alone as follows.
(§4) The FIC was then summed to derive the FIC index, which indicated synergy when index values were as follows:
(§5) synergism ≦≦0.5, indifference >0.5 to ≦≦4, antagonism >4.
(§6) FICA=MICA in combination/MICA, FICB=MICB in combination/MICB

[6] = system: MRSA (KCCM 40510); experiment: Checkerboard synergy of phlorofucofuroeckol-A and β-lactams, MRSA KCCM 40510
Procedure: as §3, §4, §5, §6

[7] = system: PBP2a; experiment: Western blot of PBP2a in MRSA; details: MRSA cells treated with various concentrations
Procedure: In order to elucidate the inhibitory effect of phlorofucofuroeckol-A on expression of a drug resistance related protein, PBP2a, MRSA cells were treated with various concentrations of phlorofucofuroeckol-A. After cell harvesting, the bacterial lysates were prepared in a lysis buffer containing 20 mM Tris-HCl (pH 7.5), 2 mM ethyleneglycoltetraacetic acid (EGTA), 2 mM ethylenediaminetetraacetic acid (EDTA) and 0.25 M sucrose. The pellets were resuspended by sonication in lysis buffer 2 times for 20 sec. Following 10 min of centrifugation at 13,000×g, the supernatant was obtained as the cell lysate. Protein concentrations were measured with Bradford protein assay. An equal amount of 2×SDS-PAGE sample buffer (pH […], 1 mM EGTA, 1 mM EDTA, 1% SDS, 150 mM NaCl) was added to the tubes containing the cell lysate and the tubes were boiled for 3 min. Aliquots of cellular proteins were then electrophoresed on 10%.

[8] = system: MRSA; experiment: Synergy of PFF with β-lactams against MRSA as stated in text; details: PFF 25 pg/mL as printed
Procedure: as §3

[9] = system: mec operon (mecA, mecI, mecR1); experiment: RT-PCR of drug resistance related genes in MRSA; details: MRSA cells treated with various concentrations
Procedure: In order to elucidate the inhibitory effect of phlorofucofuroeckol-A on expression of drug resistance related genes, MRSA cells were treated with various concentrations of phlorofucofuroeckol-A. After cell harvesting, Total RNA was isolated from the strains with zirconia beads and RNAwiz with the manufacturer's specifications. RNA concentrations were estimated via spectrophotometer at 260 nm. The 0.2-1.4 μg of total RNA plus 1.4 μg of random primer was denatured at 65° C. for 5 min, then cooled at 30 sec and preincubated for 2 min at 37° C. after the addition of 10 mM dithioothreitol (DTT), 2.5 mM each of dNTPs, and reaction buffer. Any remaining cRNA was removed via the addition of 2 units RNase H at 37° C. for 20 min. One hundred units of Superscript II reverse transcriptase were added and incubated for 50 min at 37° C. The reaction was then suspended at 70° C. for 15 min. One point five percent of the RT products were added to a PCR reaction which included PCR buffer (pH 8.4, 20 mM Tris, 50 mM KCl), 1.5 mM MgCl2, 0.5 mM dNTPs, 2 pM primers and 0.1 μL Taq DNA polymerase. Twenty-eight PCR cycles were then conducted follows: denaturation at 95° C. annealing at an indicated temperature for each primer and extension at 72° C. […]

[10] = Table 6, isolated phlorotannins
[11] = in combination with phlorofucofuroeckol-A at 12.5 μg/ml
[12] = in combination with phlorofucofuroeckol-A at 25 μg/ml
[13] = β-lactam with phlorofucofuroeckol-A at 12.5 μg/ml, synergism ≦0.5, indifference >0.5 to ≦4, antagonism >4
[14] = β-lactam with phlorofucofuroeckol-A at 25 μg/ml, synergism ≦0.5, indifference >0.5 to ≦4, antagonism >4
[15] = Table 5, PFF and β-lactams, mecA positive strain
[16] = Table 5, PFF and β-lactams, mecA negative strain

Sequence of PBP2a (P07944 whole entry): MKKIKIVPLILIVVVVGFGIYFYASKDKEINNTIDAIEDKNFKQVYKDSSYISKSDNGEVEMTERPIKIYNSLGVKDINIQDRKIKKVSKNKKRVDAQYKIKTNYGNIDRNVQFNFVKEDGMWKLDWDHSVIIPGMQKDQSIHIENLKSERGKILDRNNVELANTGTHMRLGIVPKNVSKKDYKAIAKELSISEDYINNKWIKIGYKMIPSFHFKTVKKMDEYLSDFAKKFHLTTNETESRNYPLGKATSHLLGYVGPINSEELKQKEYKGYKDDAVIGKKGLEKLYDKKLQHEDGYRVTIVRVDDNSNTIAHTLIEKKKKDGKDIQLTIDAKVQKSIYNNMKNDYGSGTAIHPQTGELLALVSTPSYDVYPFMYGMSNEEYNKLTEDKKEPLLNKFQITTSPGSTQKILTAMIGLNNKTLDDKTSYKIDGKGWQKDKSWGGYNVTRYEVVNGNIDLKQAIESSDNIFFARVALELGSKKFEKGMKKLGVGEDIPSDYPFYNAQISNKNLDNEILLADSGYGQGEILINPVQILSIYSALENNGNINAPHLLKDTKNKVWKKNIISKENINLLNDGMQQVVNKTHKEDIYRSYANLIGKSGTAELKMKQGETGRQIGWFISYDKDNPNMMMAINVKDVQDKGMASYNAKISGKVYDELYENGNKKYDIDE

`Oc1cc(O)cc(Oc2c(O)cc(O)c3c2Oc2c(O)cc(Oc4c(O)cc(O)cc4O)cc2O3)c1` [PE, 1-(3′,5′-dihydroxyphenoxy)-7-(2″,4″,6-trihydroxyphenoxy)-2,4,9-trihydroxydibenzo-1,4-dioxin] gave an MIC [1, 10] of 64 µg/mL (≈ 129 µM), an MIC [2, 10] of 32 µg/mL (≈ 64.5 µM) and an MIC [3, 10] of 64 µg/mL (≈ 129 µM).
`CN[C@H](CC(C)C)C(=O)N[C@H]1C(=O)N[C@@H](CC(N)=O)C(=O)N[C@H]2C(=O)N[C@H]3C(=O)N[C@H](C(=O)N[C@H](C(=O)O)c4cc(O)cc(O)c4-c4cc3ccc4O)[C@H](O)c3ccc(c(Cl)c3)Oc3cc2cc(c3O[C@@H]2O[C@H](CO)[C@@H](O)[C@H](O)[C@H]2O[C@H]2C[C@](C)(N)[C@H](O)[C@H](C)O2)Oc2ccc(cc2Cl)[C@H]1O` [Vancomycin, vancomycin] showed an MIC ([1]; Staphylococcus aureus) of 2 µg/mL (≈ 1.38 µM), an MIC ([2]; Staphylococcus aureus) of 2 µg/mL (≈ 1.38 µM) and an MIC ([3]; Staphylococcus aureus) of 0.5 µg/mL (≈ 0.345 µM).
In the case of fucofuroeckol-A [FF], the MIC [1, 10] is reported as 64 µg/mL, the MIC [2, 10] is reported as 64 µg/mL and the MIC [3, 10] is reported as 32 µg/mL.
penicillin was tested, and the “MIC of β-lactam (B)” value [4, 11] was 0.125 µg/mL, the “MIC of β-lactam (C)” value [4, 12] was 0.125 µg/mL and the “MIC of β-lactam (A)” value ([4]; without phlorofucofuroeckol-A) was 0.125 µg/mL. For the same compound, the “FIC index (b)” value [4, 13] was 1.391, the “FIC index (c)” value [4, 14] was 1.781 and the MIC [1, 15] was 256 µg/mL. For the same compound, the “MIC of β-lactam (B)” value [5, 11] was 1 µg/mL, the “MIC of β-lactam (C)” value [5, 12] was 0.5 µg/mL and the “MIC of β-lactam (A)” value ([5]; without phlorofucofuroeckol-A) was 256 µg/mL. For the same compound, the “FIC index (b)” value [5, 13] was 0.395, the “FIC index (c)” value [5, 14] was 0.393 and the “MIC of β-lactam (B)” value [6, 11] was 4 µg/mL. For the same compound, the “MIC of β-lactam (C)” value [6, 12] was 2 µg/mL, the “MIC of β-lactam (A)” value ([6]; without phlorofucofuroeckol-A) was 512 µg/mL and the “FIC index (b)” value [6, 13] was 0.399. The “FIC index (c)” value [6, 14] was 0.395, the MIC [2, 15] was 512 µg/mL and the MIC [3, 16] was 0.125 µg/mL.
For phlorofucofuroeckol A [PFF], the MIC [1, 15] was 32 µg/mL, the MIC [1, 10] was 32 µg/mL and the “PBP2a synthesis (protein expression)” value [7] was “inhibited a PBP2a synthesis that is a final product of mecA gene depending on the concentrations”. The MIC [2, 15] was 32 µg/mL, the MIC [2, 10] was 32 µg/mL and the MIC [3, 16] was 32 µg/mL. For the same compound, the MIC [3, 10] was 32 µg/mL, the “effect on the MICs of the β-lactams against MRSA” value [8] was “remarkably reduce the MICS of the β-lactams against MRSA” and the “gene transcription of mec operon (mecA, mecI, mecR1)” value [9] was “inhibited the gene transcription of mec operon (mecA, mecI, mecR1) involving in synthesizing PBP2a depending on the concentrations”.

— patent US20130338217A1, “ANTIBIOTIC COMPOSITION INCLUDING PHLOROTANNIN COMPOUND DERIVED FROM EISENIA BICYCLIS AS EFFECTIVE COMPONENT” (PUKYONG NATIONAL UNIVERSITY INDUSTRY-UNIVERSITY C, priority 2012, published 2013)
